In PubChem BioAssay (NCI):
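Step 1: Grow cells in 96-well plates. Step 2: Expose to compound for 48 hours at 5 concentrations. Step 3: Interpolate endpoints linearly; if unreached, use highest concentration. TGI is the concentration that stops growth completely.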

Columns and labels:
Assay in all cases: NCI tumour cell line growth inhibition, 48 h
OVCAR-8 ovarian = test system: OVCAR-8 ovarian
M14 melanoma = test system: M14 melanoma
HL-60(TB) leukemia = test system: HL-60(TB) leukemia
NCI-H522 lung = test system: NCI-H522 lung
U251 CNS = test system: U251 CNS
SK-MEL-28 melanoma = test system: SK-MEL-28 melanoma
UO-31 renal = test system: UO-31 renal
RPMI-8226 leukemia = test system: RPMI-8226 leukemia
DLD-1 colon = test system: DLD-1 colon
COLO 205 colon = test system: COLO 205 colon
UACC-62 melanoma = test system: UACC-62 melanoma
CCRF-CEM leukemia = test system: CCRF-CEM leukemia
HCT-116 colon = test system: HCT-116 colon
DMS 114 small cell lung = test system: DMS 114 small cell lung
SNB-19 CNS = test system: SNB-19 CNS
IGROV1 ovarian = test system: IGROV1 ovarian
HT29 colon = test system: HT29 colon
SW-620 colon = test system: SW-620 colon
KM20L2 colon = test system: KM20L2 colon
NCI-H23 lung = test system: NCI-H23 lung
786-0 renal = test system: 786-0 renal
NCI-H460 lung = test system: NCI-H460 lung
SNB-78 CNS = test system: SNB-78 CNS
LOX IMVI melanoma = test system: LOX IMVI melanoma
NCI-H226 lung = test system: NCI-H226 lung
DMS 273 small cell lung = test system: DMS 273 small cell lung
M19-MEL melanoma = test system: M19-MEL melanoma
HOP-62 NSCLC = test system: HOP-62 NSCLC
A498 renal = test system: A498 renal
SF-268 CNS = test system: SF-268 CNS
OVCAR-4 ovarian = test system: OVCAR-4 ovarian
MOLT-4 leukemia = test system: MOLT-4 leukemia
TK-10 renal = test system: TK-10 renal
ACHN renal = test system: ACHN renal
SK-OV-3 ovarian = test system: SK-OV-3 ovarian
CAKI-1 renal = test system: CAKI-1 renal
SF-295 CNS = test system: SF-295 CNS
UACC-257 melanoma = test system: UACC-257 melanoma
HCT-15 colon = test system: HCT-15 colon
OVCAR-5 ovarian = test system: OVCAR-5 ovarian
A549 NSCLC = test system: A549 NSCLC
KM12 colon = test system: KM12 colon
K-562 leukemia = test system: K-562 leukemia
SK-MEL-2 melanoma = test system: SK-MEL-2 melanoma
HOP-18 NSCLC = test system: HOP-18 NSCLC
SN12C renal = test system: SN12C renal
HCC-2998 colon = test system: HCC-2998 colon
EKVX NSCLC = test system: EKVX NSCLC
MALME-3M melanoma = test system: MALME-3M melanoma
OVCAR-3 ovarian = test system: OVCAR-3 ovarian
SNB-75 CNS = test system: SNB-75 CNS
LXFL 529 NSCLC = test system: LXFL 529 NSCLC
SK-MEL-5 melanoma = test system: SK-MEL-5 melanoma
RXF 393 renal = test system: RXF 393 renal
SF-539 CNS = test system: SF-539 CNS
HOP-92 NSCLC = test system: HOP-92 NSCLC
BT-549 breast = test system: BT-549 breast
MDA-MB-231 breast = test system: MDA-MB-231 breast
T-47D breast = test system: T-47D breast
HS 578T breast = test system: HS 578T breast
SR leukemia = test system: SR leukemia
MCF7 breast = test system: MCF7 breast
MDA-MB-435 = test system: MDA-MB-435
MDA-N = test system: MDA-N
DU-145 prostate = test system: DU-145 prostate
NCI/ADR-RES ovarian = test system: NCI/ADR-RES ovarian
PC-3 prostate = test system: PC-3 prostate

`C1=CC=C2NCCSCCNC3=CC=CC=CC3=NCCSCCN=C2C=C1` showed a TGI (OVCAR-8 ovarian) greater than 100 µM, a TGI (M14 melanoma) greater than 100 µM and a TGI (HL-60(TB) leukemia) greater than 100 µM. It also gave a TGI (NCI-H522 lung) greater than 100 µM, a TGI (U251 CNS) greater than 100 µM and a TGI (SK-MEL-28 melanoma) greater than 100 µM. For the same compound, the TGI (UO-31 renal) was greater than 100 µM, the TGI (RPMI-8226 leukemia) was greater than 100 µM and the TGI (DLD-1 colon) was greater than 100 µM. It also gave a TGI (COLO 205 colon) greater than 100 µM, a TGI (UACC-62 melanoma) greater than 100 µM and a TGI (CCRF-CEM leukemia) greater than 100 µM. It also gave a TGI (HCT-116 colon) greater than 100 µM, a TGI (DMS 114 small cell lung) greater than 100 µM and a TGI (SNB-19 CNS) greater than 100 µM. It also gave a TGI (IGROV1 ovarian) greater than 100 µM, a TGI (HT29 colon) greater than 100 µM and a TGI (SW-620 colon) greater than 100 µM. It also gave a TGI (KM20L2 colon) greater than 100 µM, a TGI (NCI-H23 lung) greater than 100 µM and a TGI (786-0 renal) greater than 100 µM. The TGI (NCI-H460 lung) was greater than 100 µM, the TGI (SNB-78 CNS) was greater than 100 µM and the TGI (LOX IMVI melanoma) was greater than 100 µM. It also gave a TGI (NCI-H226 lung) greater than 100 µM, a TGI (DMS 273 small cell lung) greater than 100 µM and a TGI (M19-MEL melanoma) greater than 100 µM. For the same compound, the TGI (HOP-62 NSCLC) was greater than 100 µM, the TGI (A498 renal) was greater than 100 µM and the TGI (SF-268 CNS) was greater than 100 µM. For the same compound, the TGI (OVCAR-4 ovarian) was greater than 100 µM, the TGI (MOLT-4 leukemia) was greater than 100 µM and the TGI (TK-10 renal) was greater than 100 µM. For the same compound, the TGI (ACHN renal) was greater than 100 µM, the TGI (SK-OV-3 ovarian) was greater than 100 µM and the TGI (CAKI-1 renal) was greater than 100 µM. It also gave a TGI (SF-295 CNS) greater than 100 µM, a TGI (UACC-257 melanoma) greater than 100 µM and a TGI (HCT-15 colon) greater than 100 µM. The TGI (OVCAR-5 ovarian) was greater than 100 µM, the TGI (A549 NSCLC) was greater than 100 µM and the TGI (KM12 colon) was greater than 100 µM. For the same compound, the TGI (K-562 leukemia) was greater than 100 µM, the TGI (SK-MEL-2 melanoma) was greater than 100 µM and the TGI (HOP-18 NSCLC) was greater than 100 µM. For the same compound, the TGI (SN12C renal) was greater than 100 µM, the TGI (HCC-2998 colon) was greater than 100 µM and the TGI (EKVX NSCLC) was greater than 100 µM. It also gave a TGI (MALME-3M melanoma) greater than 100 µM, a TGI (OVCAR-3 ovarian) greater than 100 µM and a TGI (SNB-75 CNS) greater than 100 µM. For the same compound, the TGI (LXFL 529 NSCLC) was greater than 100 µM and the TGI (SK-MEL-5 melanoma) was greater than 100 µM.

`O=c1/c(=C/c2ccc3c(c2)OCO3)sc2nnc(Cc3ccccc3)n12` was tested, and the TGI (OVCAR-8 ovarian) was greater than 100 µM, the TGI (M14 melanoma) was greater than 100 µM and the TGI (HL-60(TB) leukemia) was greater than 100 µM. It also gave a TGI (NCI-H522 lung) greater than 100 µM, a TGI (U251 CNS) greater than 100 µM and a TGI (SK-MEL-28 melanoma) greater than 100 µM. It also gave a TGI (UO-31 renal) greater than 100 µM, a TGI (RPMI-8226 leukemia) greater than 100 µM and a TGI (DLD-1 colon) greater than 100 µM. The TGI (COLO 205 colon) was greater than 100 µM, the TGI (UACC-62 melanoma) was greater than 100 µM and the TGI (CCRF-CEM leukemia) was greater than 100 µM. For the same compound, the TGI (HCT-116 colon) was greater than 100 µM, the TGI (DMS 114 small cell lung) was greater than 100 µM and the TGI (SNB-19 CNS) was greater than 100 µM. For the same compound, the TGI (RXF 393 renal) was greater than 100 µM, the TGI (IGROV1 ovarian) was greater than 100 µM and the TGI (SW-620 colon) was greater than 100 µM. For the same compound, the TGI (KM20L2 colon) was greater than 100 µM, the TGI (NCI-H23 lung) was greater than 100 µM and the TGI (786-0 renal) was greater than 100 µM. For the same compound, the TGI (NCI-H460 lung) was greater than 100 µM, the TGI (SNB-78 CNS) was greater than 100 µM and the TGI (LOX IMVI melanoma) was greater than 100 µM. The TGI (NCI-H226 lung) was greater than 100 µM, the TGI (DMS 273 small cell lung) was greater than 100 µM and the TGI (M19-MEL melanoma) was greater than 100 µM. It also gave a TGI (HOP-62 NSCLC) greater than 100 µM, a TGI (A498 renal) greater than 100 µM and a TGI (SF-268 CNS) greater than 100 µM. It also gave a TGI (OVCAR-4 ovarian) greater than 100 µM, a TGI (MOLT-4 leukemia) greater than 100 µM and a TGI (TK-10 renal) greater than 100 µM. It also gave a TGI (ACHN renal) greater than 100 µM, a TGI (SK-OV-3 ovarian) greater than 100 µM and a TGI (CAKI-1 renal) greater than 100 µM. The TGI (SF-295 CNS) was greater than 100 µM, the TGI (UACC-257 melanoma) was greater than 100 µM and the TGI (SF-539 CNS) was greater than 100 µM. It also gave a TGI (HCT-15 colon) greater than 100 µM, a TGI (OVCAR-5 ovarian) greater than 100 µM and a TGI (A549 NSCLC) greater than 100 µM. It also gave a TGI (KM12 colon) greater than 100 µM, a TGI (HOP-92 NSCLC) greater than 100 µM and a TGI (K-562 leukemia) greater than 100 µM. The TGI (SK-MEL-2 melanoma) was greater than 100 µM, the TGI (HOP-18 NSCLC) was greater than 100 µM and the TGI (SN12C renal) was greater than 100 µM. It also gave a TGI (HCC-2998 colon) greater than 100 µM, a TGI (EKVX NSCLC) greater than 100 µM and a TGI (MALME-3M melanoma) greater than 100 µM. It also gave a TGI (OVCAR-3 ovarian) greater than 100 µM, a TGI (SNB-75 CNS) greater than 100 µM and a TGI (LXFL 529 NSCLC) greater than 100 µM. For the same compound, the TGI (SK-MEL-5 melanoma) was greater than 100 µM.

In the case of `O=C1c2cccnc2C(=O)c2c1nc1ccccc1c2-c1ccc2c3c(nc4ccccc42)C(=O)c2cccnc2-c13`, the TGI (OVCAR-8 ovarian) is reported as 2.59 µM, the TGI (M14 melanoma) is reported as 4.55 µM and the TGI (BT-549 breast) is reported as 12.7 µM. It also gave a TGI (HL-60(TB) leukemia) of 5.42 µM, a TGI (NCI-H522 lung) of 4.58 µM and a TGI (U251 CNS) of 9.01 µM. The TGI (SK-MEL-28 melanoma) was 13.5 µM, the TGI (UO-31 renal) was 4.62 µM and the TGI (MDA-MB-231 breast) was 9.49 µM. The TGI (RPMI-8226 leukemia) was 7.14 µM, the TGI (T-47D breast) was 19.4 µM and the TGI (COLO 205 colon) was 5.68 µM. The TGI (UACC-62 melanoma) was 5.1 µM, the TGI (CCRF-CEM leukemia) was 15.5 µM and the TGI (HCT-116 colon) was 1.73 µM. The TGI (SNB-19 CNS) was 7.92 µM, the TGI (RXF 393 renal) was 9.68 µM and the TGI (IGROV1 ovarian) was 1.39 µM. For the same compound, the TGI (HT29 colon) was 7.57 µM, the TGI (HS 578T breast) was 11.1 µM and the TGI (SW-620 colon) was 4.79 µM. For the same compound, the TGI (NCI-H23 lung) was 2.67 µM, the TGI (786-0 renal) was 1.91 µM and the TGI (NCI-H460 lung) was 3.97 µM. It also gave a TGI (LOX IMVI melanoma) of 9.12 µM, a TGI (NCI-H226 lung) of 7.55 µM and a TGI (HOP-62 NSCLC) of 22.9 µM. For the same compound, the TGI (SR leukemia) was 0.34 µM, the TGI (MCF7 breast) was 8.05 µM and the TGI (A498 renal) was 6.05 µM. For the same compound, the TGI (SF-268 CNS) was 6.46 µM, the TGI (OVCAR-4 ovarian) was 14 µM and the TGI (MOLT-4 leukemia) was 5.66 µM. For the same compound, the TGI (MDA-MB-435) was 5.58 µM, the TGI (TK-10 renal) was 19.1 µM and the TGI (MDA-N) was 8.82 µM. For the same compound, the TGI (ACHN renal) was 4.1 µM, the TGI (SK-OV-3 ovarian) was 18.5 µM and the TGI (CAKI-1 renal) was 10 µM. It also gave a TGI (SF-295 CNS) of 7.68 µM, a TGI (UACC-257 melanoma) of 5.38 µM and a TGI (SF-539 CNS) of 7.49 µM. For the same compound, the TGI (HCT-15 colon) was 1.76 µM, the TGI (OVCAR-5 ovarian) was 33.6 µM and the TGI (A549 NSCLC) was 6.86 µM. For the same compound, the TGI (DU-145 prostate) was 1.34 µM, the TGI (KM12 colon) was 12.5 µM and the TGI (HOP-92 NSCLC) was 30.5 µM. The TGI (K-562 leukemia) was greater than 35.3 µM, the TGI (SK-MEL-2 melanoma) was 14.1 µM and the TGI (SN12C renal) was 4.06 µM. It also gave a TGI (HCC-2998 colon) of 9.28 µM, a TGI (EKVX NSCLC) of 6.69 µM and a TGI (MALME-3M melanoma) of 4.54 µM. The TGI (NCI/ADR-RES ovarian) was 5.16 µM, the TGI (SNB-75 CNS) was 8.28 µM and the TGI (SK-MEL-5 melanoma) was 1.77 µM. For the same compound, the TGI (PC-3 prostate) was 37.2 µM.
